Data published in ChEMBL document CHEMBL1201862, “PubChem BioAssay data set” (2004).
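Method: 48-hour compound exposure of cells in 96-well plates, five concentrations, linear interpolation of endpoints. GI50 marks 50% less growth.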 Activity calls are given as the source filed them. No stated cut-off is given here; in the data, active = GI50 up to about 1.1 µM and inactive = higher.

Experiments:
Assay in all cases: inhibition of tumour cell growth, NCI panel, 48 h
[1] = system: A498
[2] = system: A549
[3] = system: ACHN
[4] = system: COLO 205
[5] = system: EKVX
[6] = system: HL-60
[7] = system: HOP-92
[8] = system: HT-29
[9] = system: Hs-578T
[10] = system: KM12
[11] = system: MCF7
[12] = system: MOLT-4
[13] = system: OVCAR-3
[14] = system: OVCAR-4
[15] = system: OVCAR-5
[16] = system: SK-MEL-28
[17] = system: SK-MEL-5
[18] = system: SN12C
[19] = system: HCC 2998
[20] = system: NCI/ADR-RES

Row | SMILES | GI50 [1] | GI50 [2] | GI50 [3] | GI50 [4] | GI50 [5] | GI50 [6] | GI50 [7] | GI50 [8] | GI50 [9] | GI50 [10] | GI50 [11] | GI50 [12] | GI50 [13] | GI50 [14] | GI50 [15] | GI50 [16] | GI50 [17] | GI50 [18] | GI50 [19] | GI50 [20]
1 | O=C(O)C1CCCCC1c1c2ccc(=O)c(O)c-2oc2c(O)c(O)ccc12 (stereo not given) | 21.7 µM (inactive) | 13 µM (inactive) | 14 µM (inactive) | > 100 µM (inactive) | 38.1 µM (inactive) | 20.7 µM (inactive) | 31.6 µM (inactive) | 74.5 µM (inactive) | 4.44 µM (inactive) | 35.2 µM (inactive) | 14.2 µM (inactive) | 22.8 µM (inactive) | 42.1 µM (inactive) | 21.7 µM (inactive) | > 100 µM (inactive) | 69.5 µM (inactive) | 25.5 µM (inactive) | 19.3 µM (inactive) | – | –
2 | O=[N+]([O-])c1cccnc1S(=O)(=O)c1ccccc1 | 22.1 µM (inactive) | 21.8 µM (inactive) | 4.83 µM (inactive) | 5.97 µM (inactive) | 6.4 µM (inactive) | 2.49 µM (inactive) | 1.97 µM (inactive) | 6.41 µM (inactive) | – | 19.6 µM (inactive) | – | 2.84 µM (inactive) | 2.01 µM (inactive) | 6.47 µM (inactive) | 15.8 µM (inactive) | 20 µM (inactive) | 18.1 µM (inactive) | 9.2 µM (inactive) | 13.6 µM (inactive) | –
3 | O=C(CC1=Nc2nnc(CCCCCCCc3nnc4n3C(=O)C(CC(=O)c3ccccc3)=N4)n2C1=O)c1ccccc1 | > 100 µM (inactive) | > 100 µM (inactive) | > 100 µM (inactive) | > 100 µM (inactive) | > 100 µM (inactive) | > 100 µM (inactive) | > 100 µM (inactive) | > 100 µM (inactive) | – | > 100 µM (inactive) | – | > 100 µM (inactive) | > 100 µM (inactive) | – | > 100 µM (inactive) | > 100 µM (inactive) | > 100 µM (inactive) | > 100 µM (inactive) | > 100 µM (inactive) | –
4 | COc1ccc([C@H]2c3cc4c(cc3OC(O)(CO)[C@H]2C(=O)O)OCO4)c(OC)c1.COc1ccc([C@H]2c3cc4c(cc3OC3(O)COC(=O)[C@@H]23)OCO4)c(OC)c1 (stereo not given in full) | > 100 µM (inactive) | > 100 µM (inactive) | > 100 µM (inactive) | > 100 µM (inactive) | > 100 µM (inactive) | 45.6 µM (inactive) | > 100 µM (inactive) | > 100 µM (inactive) | – | > 100 µM (inactive) | – | 61.5 µM (inactive) | > 100 µM (inactive) | > 100 µM (inactive) | > 100 µM (inactive) | 35.8 µM (inactive) | > 100 µM (inactive) | > 100 µM (inactive) | > 100 µM (inactive) | –
5 | C[n+]1c2ccccc2cc2c(CNC(CCCNC(=N)N)C(=O)O)cccc21 (stereo not given) | 3.51 µM (inactive) | 3.05 µM (inactive) | 0.594 µM (active) | 0.248 µM (active) | 4.66 µM (inactive) | 0.149 µM (active) | 1.3 µM (inactive) | 0.303 µM (active) | – | 0.448 µM (active) | – | 0.208 µM (active) | 2 µM (inactive) | 11.4 µM (inactive) | 4.5 µM (inactive) | 1.34 µM (inactive) | 2.21 µM (inactive) | 0.65 µM (active) | 2.24 µM (inactive) | –
6 | CCOC(=O)C=C1CCN(C(=O)c2ccccc2)CC1 | > 100 µM (inactive) | > 100 µM (inactive) | > 100 µM (inactive) | > 100 µM (inactive) | > 100 µM (inactive) | > 100 µM (inactive) | > 100 µM (inactive) | > 100 µM (inactive) | – | > 100 µM (inactive) | – | > 100 µM (inactive) | > 100 µM (inactive) | > 100 µM (inactive) | > 100 µM (inactive) | > 100 µM (inactive) | > 100 µM (inactive) | > 100 µM (inactive) | > 100 µM (inactive) | –
7 | O=S(=O)(C1=CC(S(=O)(=O)c2ccccc2)CN(Cc2ccccc2)C1c1cccc2ccccc12)c1ccccc1 (stereo not given) | > 69 µM (inactive) | > 69 µM (inactive) | > 69 µM (inactive) | – | > 69 µM (inactive) | > 69 µM (inactive) | 6.3 µM (inactive) | > 69 µM (inactive) | – | > 69 µM (inactive) | – | > 69 µM (inactive) | > 69 µM (inactive) | > 69 µM (inactive) | > 69 µM (inactive) | > 69 µM (inactive) | > 69 µM (inactive) | > 69 µM (inactive) | > 69 µM (inactive) | –
8 | N/C(=N\O)N/N=C\c1ccc(O)c(O)c1O | > 30.8 µM (inactive) | > 58.7 µM (inactive) | – | 12.9 µM (inactive) | > 78.5 µM (inactive) | 17.2 µM (inactive) | > 55.3 µM (inactive) | 11.1 µM (inactive) | – | 26.7 µM (inactive) | 16.7 µM (inactive) | 24.9 µM (inactive) | 22.7 µM (inactive) | 10.9 µM (inactive) | > 48.1 µM (inactive) | > 100 µM (inactive) | 19.8 µM (inactive) | 19.5 µM (inactive) | 36.9 µM (inactive) | 19.5 µM (inactive)
9 | O=C(Nc1ccc2[nH]c3c(-c4ccccc4)nccc3c2c1)c1ccccc1[N+](=O)[O-] | 3.24 µM (inactive) | 4.88 µM (inactive) | 3.94 µM (inactive) | 3.45 µM (inactive) | 3.22 µM (inactive) | 3.48 µM (inactive) | 3.56 µM (inactive) | 1.85 µM (inactive) | – | 3.97 µM (inactive) | – | 2.22 µM (inactive) | – | 36.9 µM (inactive) | 2.17 µM (inactive) | 4.95 µM (inactive) | – | 64.6 µM (inactive) | 3.58 µM (inactive) | –
10 | COc1ccccc1Nc1nc2c([nH]1)c(=O)n(C)c(=O)n2C | – | > 10 µM (inactive) | – | > 10 µM (inactive) | > 10 µM (inactive) | > 10 µM (inactive) | > 10 µM (inactive) | > 10 µM (inactive) | – | > 10 µM (inactive) | > 10 µM (inactive) | > 10 µM (inactive) | – | > 10 µM (inactive) | – | > 10 µM (inactive) | > 10 µM (inactive) | > 10 µM (inactive) | > 10 µM (inactive) | –
11 | CC(O)C(N/C=C1/N=C(c2ccccc2)OC1=O)C(=O)O (stereo not given) | > 100 µM (inactive) | > 100 µM (inactive) | > 100 µM (inactive) | > 100 µM (inactive) | > 100 µM (inactive) | 10 µM (inactive) | > 100 µM (inactive) | > 100 µM (inactive) | – | > 100 µM (inactive) | – | – | > 100 µM (inactive) | > 100 µM (inactive) | > 100 µM (inactive) | > 100 µM (inactive) | > 100 µM (inactive) | – | > 100 µM (inactive) | –
12 | Cc1c2c(Cl)c3c(c(Cl)c2c(C)c2c(Cl)c4c(c(Cl)c12)C(c1ccccc1)(c1ccccc1)C4(c1ccccc1)c1ccccc1)C(c1ccccc1)(c1ccccc1)C3(c1ccccc1)c1ccccc1 | > 100 µM (inactive) | > 100 µM (inactive) | > 100 µM (inactive) | > 100 µM (inactive) | > 100 µM (inactive) | – | > 100 µM (inactive) | > 100 µM (inactive) | – | > 100 µM (inactive) | > 100 µM (inactive) | > 100 µM (inactive) | > 100 µM (inactive) | > 100 µM (inactive) | > 100 µM (inactive) | > 100 µM (inactive) | > 100 µM (inactive) | > 100 µM (inactive) | > 100 µM (inactive) | > 100 µM (inactive)
13 | CCOC(=O)c1nc(C)oc1C(F)(F)F | > 100 µM (inactive) | > 100 µM (inactive) | > 100 µM (inactive) | > 100 µM (inactive) | > 100 µM (inactive) | > 100 µM (inactive) | > 100 µM (inactive) | > 100 µM (inactive) | – | > 100 µM (inactive) | – | > 100 µM (inactive) | > 100 µM (inactive) | > 100 µM (inactive) | > 100 µM (inactive) | > 100 µM (inactive) | – | > 100 µM (inactive) | > 100 µM (inactive) | –
14 | O=C1[C@@H]2C(c3ccncc3)=NO[C@@H]2C(=O)N1c1ccc(Cc2ccc(N3C(=O)[C@H]4C(c5ccncc5)=NO[C@H]4C3=O)cc2)cc1 | > 100 µM (inactive) | > 100 µM (inactive) | > 100 µM (inactive) | > 100 µM (inactive) | > 100 µM (inactive) | > 100 µM (inactive) | > 100 µM (inactive) | > 100 µM (inactive) | – | > 100 µM (inactive) | – | > 100 µM (inactive) | > 100 µM (inactive) | > 100 µM (inactive) | > 100 µM (inactive) | > 100 µM (inactive) | > 100 µM (inactive) | > 100 µM (inactive) | > 100 µM (inactive) | –
15 | CN1CCN(C(=S)N(C)C(=O)c2ccco2)CC1 | – | > 100 µM (inactive) | > 100 µM (inactive) | > 100 µM (inactive) | – | > 10 µM (inactive) | > 100 µM (inactive) | > 100 µM (inactive) | > 100 µM (inactive) | > 100 µM (inactive) | > 100 µM (inactive) | > 100 µM (inactive) | > 100 µM (inactive) | > 100 µM (inactive) | > 100 µM (inactive) | – | > 100 µM (inactive) | > 100 µM (inactive) | > 100 µM (inactive) | –
16 | COc1ccc2c(c1OC)C(=O)N/C2=C\c1c(CCN(C)C)cc2c(c1OC)OCO2 | – | > 100 µM (inactive) | > 100 µM (inactive) | 46.2 µM (inactive) | > 100 µM (inactive) | > 100 µM (inactive) | > 100 µM (inactive) | > 100 µM (inactive) | 13.6 µM (inactive) | > 100 µM (inactive) | > 100 µM (inactive) | > 100 µM (inactive) | > 100 µM (inactive) | > 100 µM (inactive) | > 100 µM (inactive) | > 100 µM (inactive) | 42.4 µM (inactive) | > 100 µM (inactive) | > 100 µM (inactive) | –
